Measurements reported in US8686037B2, “Use of piracetam for treating diabetic nephropathy” (Uniwersytet Jagiellonski, priority 2009, dated 2014).

Columns and labels:
albumin [1] = biological target: T1, albumin (Homo sapiens, UniProt P02768); test: Measurement of albumin glycation using spectrofluorimetric method (Ex/Em 370/440 nm); type: biochemical; conditions: 5 mM; albumin incubated with glucose 0.5 M for 4 weeks
Procedure: Glycation of protein in vitro was carried out according to following scheme: • 50 mg of protein (albumin, myoglobin) was dissolved in 1 ml 0.01M PBS (pH 7.4), containing D-glucose (0.1; 0.3; 0.5; 1M) and 5 mM toluene (as a bacteriostatic compound). The examined drug or aminoguanidine hydrochloride were added to samples at final concentrations from 0.1 mM to 5 mM. Samples were incubated at 37° C., in dark, for a specified period of time (1, 2, 3 and 4 weeks). Then, the protein was concentrated by ultrafiltration (30 min at 4000×g, 16° C.) with Amicon 50 cartridges (Millipore) with cut-off of 50 kDa (in case of albumin) or Amicon 10 cartridges with cut-off of 10 kDa (in case of myoglobin). The concentrated protein samples were dialyzed for 24 hrs, against distilled water, using dialysis membranes: Spectra Por (cut-off of 50 kDa for albumin and cut-off of 12-14 kDa for myoglobin). Then the samples were lyophilized overnight. • Control samples were prepared as above except of addition of glucose (control I) or drugs (control II). Sugar residues are characterized by fluorescence—Ex/Em 370/440 nm The action of drug is expressed by a suppression of the intensity of fluorescence. Lyophylized protein samples were dissolved in 0.01M PBS (pH 7.4), at concentration 0.5 mg protein/1 ml of buffer. […] Fluorescence intensity was measured at 440 nm emission upon excitation of 370 nm.

AGEs = test: Immunohistochemistry for AGEs in renal glomeruli, streptozotocin-induced diabetes model; type: in vivo, Sprague-Dawley rats; conditions: STZ rats; 354±40 mg/kg/day in drinking water, 8 weeks; kidney
Procedure: (§1) All experimental studies using animals were approved by an Ethical Committee at the Jagiellonian University. Diabetes model was established by the single, intraperitoneal administration of streptozotocin (STZ, 75 mg/kg in citrate buffer, pH 4.5) to three-month Sprague-Dawley rats. In order to maintain glycaemia between 350 and 450 mg/dL, animals were treated twice a week by insulin (neutral protamine Hagedorn, NPH, 2-3 U/300 g of body weight).
(§2) The rats were divided into three groups (each one of n=4 animals): “control” group—animals injected with citrate buffer only (sham animals), “diabetes” group—STZ treated animals and “STZ+drug” group—STZ-rats treated with examined drug (354±40 mg/kg/day in drinking water). The experiment lasted 8 weeks. Animals were anesthetized and killed, and both the tissue samples (kidneys, heart, lungs, brain) as well as blood samples were harvested. The presence of AGEs was evaluated by immunohistochemistry, with use of specific antibodies (Abcam, USA).

albumin [2] = biological target: T1, albumin; test: Measurement of glycation by mass spectrometry (gain of molecular weight of albumin incubated with glucose); type: biochemical
Procedure: Glycation of protein in vitro was carried out according to following scheme: • 50 mg of protein (albumin, myoglobin) was dissolved in 1 ml 0.01M PBS (pH 7.4), containing D-glucose (0.1; 0.3; 0.5; 1M) and 5 mM toluene (as a bacteriostatic compound). The examined drug or aminoguanidine hydrochloride were added to samples at final concentrations from 0.1 mM to 5 mM. Samples were incubated at 37° C., in dark, for a specified period of time (1, 2, 3 and 4 weeks). Then, the protein was concentrated by ultrafiltration (30 min at 4000×g, 16° C.) with Amicon 50 cartridges (Millipore) with cut-off of 50 kDa (in case of albumin) or Amicon 10 cartridges with cut-off of 10 kDa (in case of myoglobin). The concentrated protein samples were dialyzed for 24 hrs, against distilled water, using dialysis membranes: Spectra Por (cut-off of 50 kDa for albumin and cut-off of 12-14 kDa for myoglobin). Then the samples were lyophilized overnight. • Control samples were prepared as above except of addition of glucose (control I) or drugs (control II). The method is based on a measurement of protein molecular weight (albumin, myoglobin), which is increased in proportion to the number of bound sugar moieties. […] Based on obtained MS spectra, average protein molecular weight was calculated using BioWorks 1.0 software (Finnigan, San Jose, USA).

[3] = Glycaemia in streptozotocin-induced diabetes model; type: in vivo, Sprague-Dawley rats; conditions: rats injected with STZ; 354±40 mg/kg/day in drinking water, 8 weeks
Procedure: as §1, §2

T1 sequence (P02768 25-609, species assumed): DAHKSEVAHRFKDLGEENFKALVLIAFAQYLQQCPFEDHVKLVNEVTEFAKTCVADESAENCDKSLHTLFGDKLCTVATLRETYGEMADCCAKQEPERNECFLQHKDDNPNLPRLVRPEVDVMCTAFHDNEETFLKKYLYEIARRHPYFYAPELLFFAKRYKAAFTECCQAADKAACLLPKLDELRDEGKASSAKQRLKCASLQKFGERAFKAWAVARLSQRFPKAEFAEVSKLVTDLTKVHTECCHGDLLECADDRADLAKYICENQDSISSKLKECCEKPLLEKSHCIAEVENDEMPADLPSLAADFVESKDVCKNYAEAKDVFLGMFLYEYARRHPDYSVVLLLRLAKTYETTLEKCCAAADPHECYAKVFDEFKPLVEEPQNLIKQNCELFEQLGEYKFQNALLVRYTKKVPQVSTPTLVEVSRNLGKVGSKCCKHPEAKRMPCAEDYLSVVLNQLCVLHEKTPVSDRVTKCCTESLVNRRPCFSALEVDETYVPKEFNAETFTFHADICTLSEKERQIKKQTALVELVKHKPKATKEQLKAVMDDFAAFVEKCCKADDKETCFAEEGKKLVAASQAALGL

SMILES	inhibition of glycation (spectrofluorimetric method) (albumin [1]) [%]	number of AGE-positive glomeruli (AGEs)	severity of changes in glomeruli (AGEs)	inhibition of protein glycation (mass spectrometry method) (albumin [2]; 5 mM, albumin 50 mg/ml, glucose 0.5 M, 4 weeks, compared to mass of albumin incubated with glucose alone) [%]	addition of glucose moieties to albumin (albumin [2]; in vitro model, FIG. 1, strength comparable to aminoguanidine)	glycaemia [3] [mg/dL]	influence on glycaemia [3]
Cl.N=C(N)NN [aminoguanidine, aminoguanidine hydrochloride]	67						
NC(=O)CN1CCCC1=O [tested compound, 2-(2-oxo-1-pyrrolidin-1-yl) acetamide]	45	significantly reduced	significantly reduced	33	inhibited dose-dependently	429 ± 65.0	did not influence glycaemia
